Measurements published in US11530244B2, “Cyclic polypeptides for PCSK9 inhibition” (priority 2018, dated 2022).
Starred links: 1 amine or outer side, 2 acyl side, 3 side chain; linkers in the order of their positions; H or OH if unused. Positions of bridges follow the written chain, without caps; N, C: chain ends. Non-standard residues stand in square brackets, D forms with d. Residues, ends and D or L forms follow the SMILES beside them. Phe(3-CH2NH2) = O=C([C@H](Cc1cccc(CN[*:3])c1)N[*:1])[*:2]; Phe(4-COOH) = N[C@@H](Cc1ccc(C(=O)O)cc1)C(=O)O; Trp(5-F) = N[C@@H](Cc1c[nH]c2ccc(F)cc12)C(=O)O; dPro(cis-4-NH2) = N[C@H]1CN[C@@H](C(=O)O)C1; X3 = O=C(CCSCc1cc(F)cc(CSCCN[*:1])c1)[*:2]; Pro(cis-4-F) = O=C(O)[C@@H]1C[C@H](F)CN1; Lys(N3) = [N-]=[N+]=NCCCC[C@H](N)C(=O)O; X4 = O=C(CCSCc1cccc(CSCCN[*:1])c1)[*:2]; Orn(N3) = [N-]=[N+]=NCCC[C@H](N)C(=O)O; X40 = FC(F)(F)c1cc(C[*:1])cc(C[*:2])c1; mXylylene = c1cc(C[*:1])cc(C[*:2])c1; AEF = NCCOc1ccc(C[C@H](N)C(=O)O)cc1; X53 = C#CCCC[C@H](N[*:1])C(=O)[*:2]; Glutaryl = O=C(CCCC(=O)[*:2])[*:1]; cisHyp = O=C(O)[C@@H]1C[C@H](O)CN1; X7 = O=C(Cc1ccc(CN[*:1])cc1)[*:2]; Hyp = O=C(O)[C@@H]1C[C@@H](O)CN1; aThr = C[C@H](O)[C@H](N)C(=O)O; X63 = c1ncc(C[*:2])nc1C[*:1]; αMeP = C[C@@]1(C(=O)O)CCCN1; 3Amb = NCc1cccc(C(=O)O)c1; Dab = NCC[C@H](N)C(=O)O; Dap = NC[C@H](N)C(=O)O; X2 = O=C(C[*:2])[*:1]; Ava = NCCCCC(=O)O; Mpa = O=C(O)CCS

Target: PCSK9 (Homo sapiens (Human), UniProt Q8NBP7)
Assay: PCSK9 Alexa FRET Standard assay (displacement of AlexaFluor647 tagged cyclic peptide Reagent A)
Assay type: binding
Conditions: IC50
Experimental: A solution containing 1 nM biotinylated PCSK9+2.5 nM Lance Streptavidin Europium (Strep-Eu) was made in 50 mM HEPES pH 7.4, 0.15 M NaCl, 5 mM CaCl2), 0.01% BSA, and 0.01% Surfactant P20. A separate solution containing 40 nM of the AlexaFluor tagged cyclic peptide was made in the same buffer system. An Echo was used to transfer 0.750 ul of compound to an assay plate followed by the addition of 15 ul of PCSK9+Stept-Eu and 15 ul of AF peptide. The final assay volume was 30.750 ul containing 0.5 nM PCSK9, 1.25 nM Strep-Eu, and 20 nM AF cyclic peptide. The reaction was incubated at room temperature for at least two hours prior to fluorescence measurements using an Envision Multilabel Reader. IC50 values were determined by fitting data to a sigmoidal dose-response curve using nonlinear regression. Ki was then calculated from the IC50 and the KD of AF cyclic peptide. Counts (B-counts) of the europium-labeled PCSK9 were followed to observe if compounds were […]. A fall off of the B-counts likely indicated a false positive of inhibition. Data from this procedure was reported as “A=‘numerical value’ (nanomolar)”

Chain of PCSK9 (Q8NBP7 153-692): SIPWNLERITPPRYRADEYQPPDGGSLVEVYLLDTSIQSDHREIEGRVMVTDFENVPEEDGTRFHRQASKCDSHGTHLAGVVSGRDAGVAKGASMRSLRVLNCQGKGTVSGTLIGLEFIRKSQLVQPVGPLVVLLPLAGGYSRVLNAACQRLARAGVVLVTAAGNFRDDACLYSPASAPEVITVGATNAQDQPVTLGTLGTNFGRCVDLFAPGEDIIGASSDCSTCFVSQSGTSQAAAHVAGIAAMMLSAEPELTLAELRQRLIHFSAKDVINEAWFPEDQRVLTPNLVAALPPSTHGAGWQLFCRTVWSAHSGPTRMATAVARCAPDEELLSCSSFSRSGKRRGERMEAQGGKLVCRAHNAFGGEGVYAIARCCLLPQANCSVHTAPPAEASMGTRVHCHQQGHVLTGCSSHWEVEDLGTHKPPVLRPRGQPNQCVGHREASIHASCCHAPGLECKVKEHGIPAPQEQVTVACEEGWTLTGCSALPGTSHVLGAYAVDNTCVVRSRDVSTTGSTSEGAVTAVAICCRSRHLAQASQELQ

SMILES	IC50 [µM]
C#CCCC[C@@H]1NC(=O)[C@H](Cc2c[nH]c3ccc(F)cc23)NC(=O)[C@H](CCCCN=[N+]=[N-])NC(=O)[C@@H](C)NC(=O)[C@H](CCCCN)NC(=O)CCSCc2cccc(c2)CSCCNC(=O)[C@]2(C)CCCN2C(=O)[C@H](Cc2ccc(OC)cc2)NC(=O)[C@H]([C@H](C)O)NC1=O [Compound 074] (cyclo(K[dA][Lys(N3)][Trp(5-F)][X53][aThr]Y(Me)[αMeP][X4]))	21 to 50

Same assay, conditions: PCSK9 Alexa FRET Standard assay, 0.5 nM PCSK9, 20 nM AF cyclic peptide Reagent A; read-out: IC50

IC50 [µM]	SMILES
21 to 50	CO[C@@H](C)[C@@H]1NC(=O)[C@@H]2CCCN2C(=O)[C@H](Cc2c[nH]c3ccc(F)cc23)NC(=O)[C@H](Cc2c[nH]c3ccc(F)cc23)NC(=O)[C@@H](C)NC(=O)[C@H](CCCCN)NC(=O)CCSCc2cccc(c2)CSCCNC(=O)[C@]2(C)CCCN2C(=O)[C@H](Cc2ccc(O)cc2)NC1=O [Compound 071] (cyclo(K[dA][Trp(5-F)][Trp(5-F)]P[aThr](Me)Y[αMeP][X4]))
21 to 50	COc1ccc(C[C@@H]2NC(=O)[C@H]([C@@H](C)O)NC(=O)[C@@H]3CCCN3C(=O)[C@H](Cc3c[nH]c4ccc(F)cc34)NC(=O)[C@H](Cc3c[nH]c4ccc(F)cc34)NC(=O)[C@@H](C)NC(=O)[C@H](CCCCN)NC(=O)CCSCc3cc(cc(C(F)(F)F)c3)CSC[C@@H](C(N)=O)NC(=O)[C@]3(C)CCCN3C2=O)cc1 [Compound 073] ([Mpa]K[dA][Trp(5-F)][Trp(5-F)]PTY(Me)[αMeP]C-NH2; linker 1-10 via X40)
21 to 50	COc1ccc(C[C@@H]2NC(=O)[C@H]([C@@H](C)O)NC(=O)[C@@H]3C[C@H](F)CN3C(=O)[C@H](Cc3c[nH]c4ccc(F)cc34)NC(=O)[C@H](Cc3c[nH]c4ccc(F)cc34)NC(=O)[C@@H](C)NC(=O)[C@H](CCCCN)NC(=O)[C@@H](NC(C)=O)CCNC(=O)COc3ccc(cc3)C[C@@H](C(N)=O)NC(=O)[C@]3(C)CCCN3C2=O)cc1 [Compound 075] (Ac-[Dab]K[dA][Trp(5-F)][Trp(5-F)][Pro(cis-4-F)]TY(Me)[αMeP]Y-NH2; linker 1-10 via X2)
21 to 50	COc1ccc(C[C@@H]2NC(=O)[C@H]([C@@H](C)O)NC(=O)[C@@H]3C[C@H](F)CN3C(=O)[C@H](Cc3c[nH]c4ccc(F)cc34)NC(=O)[C@H](Cc3c[nH]c4ccc(F)cc34)NC(=O)[C@@H](C)NC(=O)[C@H](CCCCN)NC(=O)[C@@H](NC(C)=O)CC(=O)NCc3cccc(c3)C[C@@H](C(N)=O)NC(=O)[C@]3(C)CCCN3C2=O)cc1 [Compound 077] (Ac-DK[dA][Trp(5-F)][Trp(5-F)][Pro(cis-4-F)]TY(Me)[αMeP][Phe(3-CH2NH2)]-NH2; lactam 1-10)
1 to 12.1	COc1ccc(C[C@@H]2NC(=O)[C@H]([C@@H](C)O)NC(=O)[C@@H]3C[C@H](F)CN3C(=O)[C@H](Cc3c[nH]c4ccc(F)cc34)NC(=O)[C@H](Cc3c[nH]c4ccc(F)cc34)NC(=O)[C@@H](C)NC(=O)[C@H](CCCCN)NC(=O)[C@@H](NC(C)=O)CC(=O)NCc3ccccc3C[C@@H](C(N)=O)NC(=O)[C@]3(C)CCCN3C2=O)cc1 [Compound 079]
0.1 to 1	COc1ccc(C[C@@H]2NC(=O)[C@H]([C@@H](C)O)NC(=O)[C@@H]3C[C@H](F)CN3C(=O)[C@H](Cc3c[nH]c4ccc(F)cc34)NC(=O)[C@H](Cc3c[nH]c4ccc(F)cc34)NC(=O)[C@@H](C)NC(=O)CCCC(=O)NCCOc3ccc(cc3)C[C@@H](C(N)=O)NC(=O)[C@]3(C)CCCN3C2=O)cc1 [Compound 081] ([dA][Trp(5-F)][Trp(5-F)][Pro(cis-4-F)]TY(Me)[αMeP][AEF]-NH2; linker N-8 via Glutaryl)
1 to 12.1	COc1ccc(C[C@@H]2NC(=O)[C@H]([C@@H](C)O)NC(=O)[C@@H]3CCCN3C(=O)[C@H](Cc3c[nH]c4ccc(F)cc34)NC(=O)[C@H](Cc3c[nH]c4ccc(F)cc34)NC(=O)[C@@H](C)NC(=O)[C@H](CCCCN)NC(=O)CCSCc3cncc(n3)CSC[C@@H](C(N)=O)NC(=O)[C@]3(C)CCCN3C2=O)cc1 [Compound 090] ([Mpa]K[dA][Trp(5-F)][Trp(5-F)]PTY(Me)[αMeP]C-NH2; linker 1-10 via X63)
21 to 50	COc1ccc(C[C@@H]2NC(=O)[C@H]([C@@H](C)O)NC(=O)[C@@H]3C[C@H](F)CN3C(=O)[C@H](Cc3c[nH]c4ccc(F)cc34)NC(=O)[C@H](Cc3c[nH]c4ccc(F)cc34)NC(=O)[C@@H](C)NC(=O)[C@H](CCCCN)NC(=O)[C@@H](NC(C)=O)CNC(=O)COc3ccc(cc3)C[C@@H](C(N)=O)NC(=O)[C@]3(C)CCCN3C2=O)cc1 [Compound 094] (Ac-[Dap]K[dA][Trp(5-F)][Trp(5-F)][Pro(cis-4-F)]TY(Me)[αMeP]Y-NH2; linker 1-10 via X2)

The remaining lines, values behind:

SMILES	IC50 [µM]
COc1ccc(C[C@@H]2NC(=O)[C@H]([C@@H](C)O)NC(=O)[C@@H]3C[C@H](F)CN3C(=O)[C@H](Cc3c[nH]c4ccc(F)cc34)NC(=O)[C@H](Cc3c[nH]c4ccc(F)cc34)NC(=O)[C@@H](C)NC(=O)CCCCNC(=O)c3ccc(cc3)C[C@@H](C(N)=O)NC(=O)[C@]3(C)CCCN3C2=O)cc1 [Compound 076] ([Ava][dA][Trp(5-F)][Trp(5-F)][Pro(cis-4-F)]TY(Me)[αMeP][Phe(4-COOH)]-NH2; lactam N-9)	0.1 to 1
C#CCCC[C@@H]1NC(=O)[C@H](Cc2c[nH]c3ccc(F)cc23)NC(=O)[C@H](CCCN=[N+]=[N-])NC(=O)[C@@H](C)NC(=O)[C@H](C)NC(=O)CCSCc2cccc(c2)CSCCNC(=O)[C@]2(C)CCCN2C(=O)[C@H](Cc2ccc(OC)cc2)NC(=O)[C@H]([C@@H](C)O)NC1=O [Compound 078] (cyclo(A[dA][Orn(N3)][Trp(5-F)][X53]TY(Me)[αMeP][X4]))	0.1 to 1
COc1ccc(C[C@@H]2NC(=O)[C@@H]([C@H](C)O)NC(=O)[C@@H]3C[C@H](F)CN3C(=O)[C@H](Cc3c[nH]c4ccc(F)cc34)NC(=O)[C@H](Cc3c[nH]c4ccc(F)cc34)NC(=O)[C@@H](C)NC(=O)Cc3ccc(cc3)CNC(=O)c3ccc(cc3)C[C@@H](C(N)=O)NC(=O)[C@]3(C)CCCN3C2=O)cc1 [Compound 080] ([X7][dA][Trp(5-F)][Trp(5-F)][Pro(cis-4-F)][dT]Y(Me)[αMeP][Phe(4-COOH)]-NH2; lactam N-9)	1 to 12.1
COc1ccc(C[C@@H]2NC(=O)[C@@H]([C@H](C)O)NC(=O)[C@H]3C[C@@H](N)CN3C(=O)[C@H](Cc3c[nH]c4ccc(F)cc34)NC(=O)[C@H](Cc3c[nH]c4ccc(F)cc34)NC(=O)[C@@H](C)NC(=O)[C@H](CCCCN)NC(=O)CCSCc3cc(F)cc(c3)CSCCNC(=O)[C@]3(C)CCCN3C2=O)cc1 [Compound 082] (cyclo(K[dA][Trp(5-F)][Trp(5-F)][dPro(cis-4-NH2)][dT]Y(Me)[αMeP][X3]))	0.1 to 1
COc1ccc(C[C@@H]2NC(=O)[C@@H]([C@H](C)O)NC(=O)[C@H]3C[C@@H](N)CN3C(=O)[C@H](Cc3c[nH]c4ccc(F)cc34)NC(=O)[C@H](Cc3c[nH]c4ccc(F)cc34)NC(=O)[C@@H](C)NC(=O)[C@H](CCCCN)NC(=O)CCSCc3cccc(c3)CSCCNC(=O)[C@]3(C)CCCN3C2=O)cc1 [Compound 083] (cyclo(K[dA][Trp(5-F)][Trp(5-F)][dPro(cis-4-NH2)][dT]Y(Me)[αMeP][X4]))	0.1 to 1
COc1ccc(C[C@@H]2NC(=O)[C@@H]([C@H](C)O)NC(=O)[C@@H]3C[C@@H](O)CN3C(=O)[C@H](Cc3c[nH]c4ccc(F)cc34)NC(=O)[C@H](Cc3c[nH]c4ccc(F)cc34)NC(=O)[C@@H](C)NC(=O)[C@H](CCCCN)NC(=O)CCSCc3cccc(c3)CSCCNC(=O)[C@]3(C)CCCN3C2=O)cc1 [Compound 084] (cyclo([Hyp][dT]Y(Me)[αMeP][X4]K[dA][Trp(5-F)][Trp(5-F)]))	0.1 to 1
COc1ccc(C[C@@H]2NC(=O)[C@@H]([C@H](C)O)NC(=O)[C@@H]3C[C@H](O)CN3C(=O)[C@H](Cc3c[nH]c4ccc(F)cc34)NC(=O)[C@H](Cc3c[nH]c4ccc(F)cc34)NC(=O)[C@@H](C)NC(=O)[C@H](CCCCN)NC(=O)CCSCc3cccc(c3)CSCCNC(=O)[C@]3(C)CCCN3C2=O)cc1 [Compound 085] (cyclo(K[dA][Trp(5-F)][Trp(5-F)][cisHyp][dT]Y(Me)[αMeP][X4]))	21 to 50
COc1ccc(C[C@@H]2NC(=O)[C@@H]([C@H](C)O)NC(=O)[C@@H]3C[C@H](O)CN3C(=O)[C@H](Cc3c[nH]c4ccc(F)cc34)NC(=O)[C@H](Cc3c[nH]c4ccc(F)cc34)NC(=O)[C@@H](C)NC(=O)[C@H](CCCCN)NC(=O)CCSCc3cc(F)cc(c3)CSCCNC(=O)[C@]3(C)CCCN3C2=O)cc1 [Compound 086] (cyclo(K[dA][Trp(5-F)][Trp(5-F)][cisHyp][dT]Y(Me)[αMeP][X3]))	21 to 50
COc1ccc(C[C@@H]2NC(=O)[C@@H]([C@H](C)O)NC(=O)[C@@H]3C[C@@H](O)CN3C(=O)[C@H](Cc3c[nH]c4ccc(F)cc34)NC(=O)[C@H](Cc3c[nH]c4ccc(F)cc34)NC(=O)[C@@H](C)NC(=O)[C@H](CCCCN)NC(=O)CCSCc3cc(F)cc(c3)CSCCNC(=O)[C@]3(C)CCCN3C2=O)cc1 [Compound 087] (cyclo([Hyp][dT]Y(Me)[αMeP][X3]K[dA][Trp(5-F)][Trp(5-F)]))	21 to 50
C[C@@]12CCCN1C(=O)[C@H](Cc1ccc(O)cc1)NC(=O)c1cccc(c1)CNC(=O)[C@H](Cc1c[nH]c3ccc(F)cc13)NC(=O)[C@H](Cc1c[nH]c3ccc(F)cc13)NC(=O)CNC(=O)[C@H](CCCCN)NC(=O)CCSCc1cccc(c1)CSC[C@@H](C(N)=O)NC2=O [Compound 088] ([Mpa]KG[Trp(5-F)][Trp(5-F)][3Amb]Y[αMeP]C-NH2; linker 1-9 via mXylylene)	0.1 to 1
